Reference: PubChem BioAssay AID284 (DTP/NCI, 2004)
Values joined by “and” are separate entries in the source; they are usually repeats but may differ in a detail not shown here. Identical values can stand only once. Toxic doses and inconclusive results are not listed. Rule for the calls: active = survival T/C of 150% or more; inactive = T/C below 125% in these data.

System: BDF1 mice, L1210/MTX-resistant leukemia ip, survival T/C
Experiment: NCI In Vivo Anticancer Drug Screen. Data for tumor model L1210 Leukemia resistant to Methotrexate; NSC 740 (intraperitoneal) in B6D2F1 (BDF1) mice
Settings: endpoint: mean survival time, higher = longer survival
Method: The antitumor activity of compounds was measured in mice bearing transplantable tumors. Survival or tumor size were measured and the results are expressed as the measurement made in the treated group (T) divided by the measurement made in the vehicle treated control group (C). The tumor model used in this assay is L1210 Leukemia resistant to Methotrexate; NSC 740 (intraperitoneal) in B6D2F1 (BDF1) mice

[1] = dose: 62.5 mg/kg/injection, schedule: Q01DX010 (ip), vehicle: saline
[2] = dose: 125.0 mg/kg/injection, schedule: Q01DX010 (ip), vehicle: saline
[3] = dose: 250.0 mg/kg/injection, schedule: Q01DX010 (ip), vehicle: saline

Measured: T/C

O=C(Nc1ccc(C2=NCCN2)cc1)c1ccc(C(=O)Nc2ccc(C3=NCCN3)cc2)c(Cl)c1
inactive: dose: 1.9 mg/kg/injection, schedule: Q01DX Z (ip), vehicle: other 88 % of control | dose: 2.0 mg/kg/injection, schedule: Q01DX010 (ip), vehicle: other 122 % of control | dose: 3.8 mg/kg/injection, schedule: Q01DX Z (ip), vehicle: other 94 % of control | dose: 7.5 mg/kg/injection, schedule: Q01DX Z (ip), vehicle: other 97 % of control | dose: 8.5 mg/kg/injection, schedule: Q02DX010 (ip), vehicle: carboxymethylcellulose (CMC) 123 % of control | dose: 10.0 mg/kg/injection, schedule: Q01DX Z (ip), vehicle: saline 118 % of control and 110 % of control | dose: 15.0 mg/kg/injection, schedule: Q01DX Z (ip), vehicle: other 97 % of control | dose: 20.0 mg/kg/injection, schedule: Q01DX Z (ip), vehicle: other 124 % of control | dose: 30.0 mg/kg/injection, schedule: Q01DX Z (ip), vehicle: other 101 % of control | dose: 40.0 mg/kg/injection, schedule: Q01DX Z (ip), vehicle: other 95 % of control | dose: 80.0 mg/kg/injection, schedule: Q01DX Z (ip), vehicle: other 91 % of control | dose: 80.0 mg/kg/injection, schedule: Q01DX Z (ip), vehicle: saline 88 % of control
active: dose: 8.0 mg/kg/injection, schedule: Q01DX010 (ip), vehicle: other 170 % of control | dose: 16.0 mg/kg/injection, schedule: Q01DX010 (ip), vehicle: other 177 % of control and 221 % of control | dose: 30.0 mg/kg/injection, schedule: Q02DX010 (ip), vehicle: carboxymethylcellulose (CMC) 192 % of control | dose: 32.0 mg/kg/injection, schedule: Q01DX010 (ip), vehicle: other 250 % of control and 274 % of control | dose: 45.0 mg/kg/injection, schedule: Q02DX010 (ip), vehicle: carboxymethylcellulose (CMC) 190 % of control

c1ccc(CCSc2ncnc3nc[nH]c23)cc1
inactive: [1] 93 % of control | [2] 91 % of control | [3] 100 % of control | dose: 500.0 mg/kg/injection, schedule: Q01DX010 (ip), vehicle: saline 100 % of control

CCCSc1ncnc2nc[nH]c12
inactive: dose: 0.5 mg/kg/injection, schedule: Q01DX Z (ip), vehicle: other 103 % of control | dose: 2.0 mg/kg/injection, schedule: Q01DX Z (ip), vehicle: other 93 % of control | dose: 4.0 mg/kg/injection, schedule: Q01DX Z (ip), vehicle: other 93 % of control | dose: 31.3 mg/kg/injection, schedule: Q01DX010 (ip), vehicle: saline 104 % of control | [1] 95 % of control | dose: 87.5 mg/kg/injection, schedule: Q01DX Z (ip), vehicle: other 100 % of control | [2] 90 % of control | dose: 175.0 mg/kg/injection, schedule: Q01DX Z (ip), vehicle: other 88 % of control | [3] 88 % of control

CCC(=O)O[C@H]1CC[C@H]2[C@@H]3CCC4=CC(=O)CC[C@]4(C)[C@H]3CC[C@]12C
inactive: dose: 125.0 mg/kg/injection, schedule: Q01DX Z (sc), vehicle: steriod suspending solution 100 % of control and 102 % of control | dose: 250.0 mg/kg/injection, schedule: Q01DX Z (sc), vehicle: steriod suspending solution 102 % of control | dose: 1000.0 mg/kg/injection, schedule: Q01DX Z (sc), vehicle: steriod suspending solution 86 % of control and 89 % of control

C[C@@H]1C[C@H]2CC[C@H](O2)[C@H](C)C(=O)O[C@@H](C)C[C@@H]2CC[C@@H](O2)[C@@H](C)C(=O)O[C@H](C)C[C@H]2CC[C@H](O2)[C@H](C)C(=O)O[C@@H](C)C[C@@H]2CC[C@@H](O2)[C@@H](C)C(=O)O1
inactive: dose: 100.0 mg/kg/injection, schedule: Q01DX Z (ip), vehicle: methylcellulose (MC) 89 % of control

c1ccc(CNc2ncnc3[nH]ncc23)cc1
inactive: dose: 8.0 mg/kg/injection, schedule: Q01DX010 (ip), vehicle: saline 94 % of control and 103 % of control | dose: 16.0 mg/kg/injection, schedule: Q01DX010 (ip), vehicle: saline 96 % of control and 100 % of control | dose: 32.0 mg/kg/injection, schedule: Q01DX010 (ip), vehicle: saline 91 % of control

C=CC(CN1CC1)OC(C)=O (stereo not drawn)
inactive: dose: 1.25 mg/kg/injection, schedule: Q01DX Z (ip), vehicle: saline 119 % of control | dose: 2.0 mg/kg/injection, schedule: Q01DX010 (ip), vehicle: saline 123 % of control | dose: 2.5 mg/kg/injection, schedule: Q01DX Z (ip), vehicle: saline 107 % of control | dose: 5.0 mg/kg/injection, schedule: Q01DX Z (ip), vehicle: saline 102 % of control

O[C@H](CN1CC1)[C@@H](O)CN1CC1
active: dose: 0.37 mg/kg/injection, schedule: Q01DX Z (ip), vehicle: saline 151 % of control
inactive: dose: 0.01 mg/kg/injection, schedule: Q01DX Z (ip), vehicle: saline 99 % of control | dose: 0.02 mg/kg/injection, schedule: Q01DX Z (ip), vehicle: saline 105 % of control

O=c1[nH]c(=O)n(C2CC(O)C(CO)O2)cc1Br (stereo not drawn)
inactive: dose: 3.75 mg/kg/injection, schedule: Q01DX Z (ip), vehicle: carboxymethylcellulose (CMC) 93 % of control | dose: 7.5 mg/kg/injection, schedule: Q01DX Z (ip), vehicle: carboxymethylcellulose (CMC) 120 % of control | dose: 15.0 mg/kg/injection, schedule: Q01DX Z (ip), vehicle: carboxymethylcellulose (CMC) 113 % of control | dose: 30.0 mg/kg/injection, schedule: Q01DX Z (ip), vehicle: carboxymethylcellulose (CMC) 104 % of control
